{"source": "paper PMC8449657", "about": "“Identification of a self‐sufficient cytochrome P450 monooxygenase from Cupriavidus pinatubonensis JMP134 involved in 2‐hydroxyphenylacetic acid catabolism, via homogentisate pathway” (Microbial Biotechnology, 2021)", "biological_target": "T1, OhpA (Cupriavidus pinatubonensis, UniProt Q46QG0)", "T1 construct": "gene Reut_B5278; full length, 783 aa, untagged as far as told; pBS1-ohpA (PBAD) expressed in Pseudomonas putida KT2440, assayed in cell extract", "T1 sequence (Q46QG0 1-783)": "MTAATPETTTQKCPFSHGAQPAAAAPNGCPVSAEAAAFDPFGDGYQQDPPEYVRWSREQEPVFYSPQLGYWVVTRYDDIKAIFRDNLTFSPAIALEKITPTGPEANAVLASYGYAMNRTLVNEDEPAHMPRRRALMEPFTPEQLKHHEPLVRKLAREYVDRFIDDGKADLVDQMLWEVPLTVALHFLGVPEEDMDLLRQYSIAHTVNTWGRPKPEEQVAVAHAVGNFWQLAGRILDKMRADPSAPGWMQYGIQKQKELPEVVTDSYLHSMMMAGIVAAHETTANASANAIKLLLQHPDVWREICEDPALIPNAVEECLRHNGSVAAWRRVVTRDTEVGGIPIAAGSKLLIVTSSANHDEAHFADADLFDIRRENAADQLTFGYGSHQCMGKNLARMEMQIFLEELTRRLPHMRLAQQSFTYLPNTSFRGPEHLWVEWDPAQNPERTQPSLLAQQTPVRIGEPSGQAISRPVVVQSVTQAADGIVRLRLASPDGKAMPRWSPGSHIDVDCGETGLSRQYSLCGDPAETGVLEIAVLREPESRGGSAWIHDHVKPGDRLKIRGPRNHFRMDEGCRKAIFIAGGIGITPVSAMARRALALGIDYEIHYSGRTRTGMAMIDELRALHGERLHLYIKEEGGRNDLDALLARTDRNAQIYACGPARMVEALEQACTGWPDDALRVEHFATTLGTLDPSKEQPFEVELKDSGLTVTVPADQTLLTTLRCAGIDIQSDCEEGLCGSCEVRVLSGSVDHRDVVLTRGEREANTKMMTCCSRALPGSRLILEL", "experiment": "substrate-dependent NADH oxidation at […] nm in extract of P. putida KT2440 pBS1-ohpA", "assay_type": "biochemical", "conditions": "0.2 mM NADH, 100 uM 2-HPA, 1 uM FAD, 35 mM Tris/acetate pH 7.5"}
{"compound": "NC(=O)C1=CN([C@@H]2O[C@H](COP(=O)(O)OP(=O)(O)OC[C@H]3O[C@@H](n4cnc5c(N)ncnc54)[C@H](O)[C@@H]3O)[C@@H](O)[C@H]2O)C=CC1", "note": "[NADH]", "values": [{"measurement": "substrate-dependent NADH oxidation at 340 nm in extract of P. putida KT2440 pBS1", "value": "we assayed the substrate‐dependent NADH oxidation in cell extracts of P. putida KT2440 harbouring pBS1‐ohpA"}]}
